Data as given in ChEMBL document CHEMBL5356956, “Optimizing and characterizing 4-methyl substituted pyrazol-3-carboxamides leading to the peripheral cannabinoid 1 receptor inverse agonist TM38837” (Bioorg Med Chem Lett, 2024).
Values after ≈ are worked out from the molar mass of the structure shown.

Experiments:
[1] = Drug concentration in DIO mouse adipose tissue at 10 mg/kg, po measured for 6 hrs relative to plasma concentration; type: ADME, organism-based; settings: other tissue
[2] = Drug concentration in DIO mouse plasma at 10 mg/kg, po measured for 6 hrs; type: ADME, organism-based
[3] = Drug concentration in DIO mouse liver at 10 mg/kg, po measured for 6 hrs; type: ADME, organism-based; settings: read-out: Drug uptake
Cannabinoid receptor 1 [4] = target: T1, Cannabinoid receptor 1 (Homo sapiens, UniProt P21554); assay: Inverse agonist activity at human CB1 receptor expressed in African green monkey COS7 cells co-expressing G-protein in presence of CP55940 by IP3 assay; type: functional, cell membranes, Membrane
[5] = Subchronic toxicity in DIO mouse assessed as reduction in body weight at 10 mg/kg, po measured after 7 days; type: organism-based; set-up: scale not given: the % may be the effect or the level left; settings: in vivo, 168 h, time 7 day
[6] = Drug concentration in DIO mouse brain at 10 mg/kg, po measured for 6 hrs; type: ADME, organism-based; settings: read-out: Drug uptake
[7] = Drug concentration in DIO mouse brain at 10 mg/kg, po measured for 24 hrs; type: ADME, organism-based; settings: in vivo, po, 10 mg/kg, 24 h, BLD = below limit of detection
[8] = Drug concentration in DIO mouse adipose tissue at 10 mg/kg, po measured for 6 hrs; type: ADME, organism-based; settings: read-out: Drug uptake
Cannabinoid receptor 1 [9] = target: T1, Cannabinoid receptor 1; assay: Antagonist activity at human CB1 receptor expressed in CHO-K1 cell membrane in presence of CP55940 by GTP-gamma-S assay; type: functional, cell membranes
[10] = Lipophilicity, logD of compound by chromatographic analysis; type: physicochemical
[11] = Drug concentration in DIO mouse brain at 10 mg/kg, po measured for 6 hrs relative to plasma concentration; type: ADME, organism-based
Cannabinoid receptor 1 [12] = target: T1, Cannabinoid receptor 1; assay: Inverse agonist activity at human CB1 receptor expressed in CHO-K1 cell membrane by GTP-gamma-S assay; type: functional, cell membranes
Cannabinoid receptor 2 = Cannabinoid receptor 2 (Homo sapiens, UniProt P34972); assay: Inverse agonist activity at human CB2 receptor expressed in CHO-K1 cell membrane in presence of CP55940 by GTP-gamma-S assay; type: functional, cell membranes
[13] = Solubility of compound; type: physicochemical
hERG = hERG (Homo sapiens, UniProt Q12809); assay: Inhibition of hERG at 10 uM by patch clamp assay relative to control; type: toxicity
[14] = Clearance in rat hepatocytes assessed per million cells; type: ADME, cell-based, Hepatocyte
CYP2C9 = CYP2C9 (Homo sapiens, UniProt P11712); assay: Inhibition of CYP2C9 (unknown origin) at 10 uM relative to control; type: ADME
[15] = In vivo inverse agonist activity at CB1 receptor in DIO mouse assessed as efficacy at 10 mg/kg, po measured after 6 hrs; type: functional
[16] = Drug concentration in DIO mouse adipose tissue assessed as fold increase at 10 mg/kg, po measured for 6 hrs relative to plasma concentration; type: ADME, organism-based; settings: read-out: FC
[17] = target: Voltage-gated inwardly rectifying potassium channel KCNH2 (Homo sapiens, UniProt Q12809); assay: Inhibition of hERG by patch clamp assay; type: toxicity
[18] = Tmax in NMRI mouse at 10 mg/kg, po; type: ADME, organism-based; settings: in vivo
[19] = Clearance in NMRI mouse at 2 mg/kg, iv; type: ADME, organism-based; settings: in vivo
[20] = Cmax in NMRI mouse at 10 mg/kg, po; type: ADME, organism-based; set-up: dose 10 mg/kg, route po; settings: in vivo
[21] = Oral bioavailability in NMRI mouse at 10 mg/kg; type: ADME, organism-based; settings: in vivo
[22] = Efflux ratio of permeability in human Caco-2 cells; type: ADME, cell-based
[23] = Drug concentration in NMRI mouse brain relative to plasma concentration; type: ADME, tissue-based
[24] = Half life in NMRI mouse at 2 mg/kg, iv; type: ADME, organism-based; settings: in vivo
[25] = Volume of distribution at steady state in NMRI mouse at 2 mg/kg, iv; type: ADME, organism-based; settings: in vivo, read-out: Vdss
[26] = Protein binding in NMRI mouse plasma; type: ADME, cell-free; settings: read-out: PPB
[27] = Half life in NMRI mouse at 10 mg/kg, po; type: ADME, organism-based; settings: in vivo

Chain of Cannabinoid receptor 2 (P34972 whole entry): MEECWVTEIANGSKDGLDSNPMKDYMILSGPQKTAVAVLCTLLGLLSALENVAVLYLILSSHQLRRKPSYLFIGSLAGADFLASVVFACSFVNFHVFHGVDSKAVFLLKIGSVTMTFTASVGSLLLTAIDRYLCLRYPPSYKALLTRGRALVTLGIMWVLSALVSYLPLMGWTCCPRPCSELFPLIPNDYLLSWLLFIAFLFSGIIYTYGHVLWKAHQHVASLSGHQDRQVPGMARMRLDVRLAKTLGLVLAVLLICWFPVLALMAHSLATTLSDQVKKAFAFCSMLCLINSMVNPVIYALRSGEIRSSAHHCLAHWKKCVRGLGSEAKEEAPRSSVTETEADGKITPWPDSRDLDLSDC
Chain of CYP2C9 (P11712 whole entry): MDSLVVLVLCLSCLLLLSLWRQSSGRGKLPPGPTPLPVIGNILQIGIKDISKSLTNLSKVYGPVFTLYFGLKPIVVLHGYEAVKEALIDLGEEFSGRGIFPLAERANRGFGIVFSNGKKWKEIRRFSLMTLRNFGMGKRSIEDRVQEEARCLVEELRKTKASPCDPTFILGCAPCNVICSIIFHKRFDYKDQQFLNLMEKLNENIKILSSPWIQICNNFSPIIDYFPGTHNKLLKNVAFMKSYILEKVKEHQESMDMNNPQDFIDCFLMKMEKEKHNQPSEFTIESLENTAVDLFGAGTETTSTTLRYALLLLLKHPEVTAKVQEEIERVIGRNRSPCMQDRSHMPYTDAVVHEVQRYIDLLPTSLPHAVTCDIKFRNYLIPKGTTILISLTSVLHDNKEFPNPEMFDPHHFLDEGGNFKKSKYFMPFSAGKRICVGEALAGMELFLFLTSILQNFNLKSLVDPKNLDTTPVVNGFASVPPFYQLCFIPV
T1 sequence (P21554 whole entry): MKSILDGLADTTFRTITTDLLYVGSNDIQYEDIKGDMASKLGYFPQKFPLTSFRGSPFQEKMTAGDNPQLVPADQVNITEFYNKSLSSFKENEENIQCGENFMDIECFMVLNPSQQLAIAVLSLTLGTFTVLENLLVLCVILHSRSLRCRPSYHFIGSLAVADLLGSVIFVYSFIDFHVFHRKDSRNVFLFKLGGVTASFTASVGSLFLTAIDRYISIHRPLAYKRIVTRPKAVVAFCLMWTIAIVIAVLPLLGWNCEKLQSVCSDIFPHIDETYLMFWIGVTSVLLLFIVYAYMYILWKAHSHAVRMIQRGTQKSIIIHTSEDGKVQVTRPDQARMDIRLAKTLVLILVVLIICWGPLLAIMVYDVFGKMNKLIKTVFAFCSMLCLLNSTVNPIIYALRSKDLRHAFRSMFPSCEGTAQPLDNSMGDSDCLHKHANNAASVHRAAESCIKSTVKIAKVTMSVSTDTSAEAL
Chain of hERG (Q12809 whole entry): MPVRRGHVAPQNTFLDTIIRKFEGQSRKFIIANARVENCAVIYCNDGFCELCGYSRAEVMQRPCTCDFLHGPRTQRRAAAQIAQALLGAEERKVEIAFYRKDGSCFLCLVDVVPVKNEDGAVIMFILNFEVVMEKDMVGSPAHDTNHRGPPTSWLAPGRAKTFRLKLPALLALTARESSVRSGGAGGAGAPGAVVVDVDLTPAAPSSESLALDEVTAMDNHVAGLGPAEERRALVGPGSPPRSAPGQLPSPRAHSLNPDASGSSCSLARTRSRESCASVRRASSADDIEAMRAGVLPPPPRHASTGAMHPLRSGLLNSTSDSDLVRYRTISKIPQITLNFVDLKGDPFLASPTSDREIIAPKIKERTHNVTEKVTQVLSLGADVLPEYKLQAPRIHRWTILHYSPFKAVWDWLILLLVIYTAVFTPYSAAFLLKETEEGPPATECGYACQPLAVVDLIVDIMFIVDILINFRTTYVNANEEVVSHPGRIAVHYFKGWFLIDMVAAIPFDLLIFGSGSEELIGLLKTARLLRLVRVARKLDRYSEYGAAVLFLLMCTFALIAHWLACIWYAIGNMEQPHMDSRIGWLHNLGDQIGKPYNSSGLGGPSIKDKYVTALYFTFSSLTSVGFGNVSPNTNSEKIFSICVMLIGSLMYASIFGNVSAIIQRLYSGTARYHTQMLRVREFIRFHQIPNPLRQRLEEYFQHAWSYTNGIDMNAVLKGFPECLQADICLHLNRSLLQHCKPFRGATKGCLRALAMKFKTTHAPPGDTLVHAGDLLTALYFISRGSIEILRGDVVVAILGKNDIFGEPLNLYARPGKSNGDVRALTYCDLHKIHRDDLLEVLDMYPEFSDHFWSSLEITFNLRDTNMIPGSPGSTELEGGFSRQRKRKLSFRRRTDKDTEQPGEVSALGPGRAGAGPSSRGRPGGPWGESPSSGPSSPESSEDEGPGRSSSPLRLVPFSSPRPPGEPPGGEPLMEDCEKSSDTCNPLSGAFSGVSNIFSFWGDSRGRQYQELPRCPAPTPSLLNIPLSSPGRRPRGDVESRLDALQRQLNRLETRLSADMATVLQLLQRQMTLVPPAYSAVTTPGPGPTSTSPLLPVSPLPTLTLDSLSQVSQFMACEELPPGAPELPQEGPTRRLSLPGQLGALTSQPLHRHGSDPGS
Chain of Voltage-gated inwardly rectifying potassium channel KCNH2 (Q12809 whole entry): as above

SMILES	IC50 (Cannabinoid receptor 1 [4]) [nM]	Activity [5] [%]	chromatographic logD [10]	IC50 (Cannabinoid receptor 1 [12]) [nM]	solubility [13] [µM]	CLH [14] [µL/min/1e6 cells]	other results
O=C(O)Cc1c(C(=O)N2CCC(c3ccc(F)cc3)CC2)nn(-c2ccccc2Cl)c1-c1ccc(Cl)cc1	18	0.2	2.7	300	–	–	Drug uptake [1]: 4%; concentration at 6 h [2]: 9 µM; concentration at 6 h [3]: 9.5 µM; concentration at 6 h [6]: 0.07 µM; Drug uptake [7]: Bld; concentration at 6 h [8]: 0.35 µM; IC50 (Cannabinoid receptor 1 [9]): 18 nM; Drug uptake [11]: 0.8%; IC50 (Cannabinoid receptor 2): > 10000 nM
O=C(O)Cc1c(C(=O)N2CCC(Oc3cccc(F)c3)CC2)nn(-c2ccccc2Cl)c1-c1ccc(Cl)cc1	15	< 2	3.3	–	155 (≈ 88.1 µg/mL)	–	–
NC(=O)Cc1c(C(=O)NC2CCN(C(=O)C3CC3)CC2)nn(-c2ccccc2Cl)c1-c1ccc(Cl)cc1	–	–	–	–	81 (≈ 43.8 µg/mL)	18	inhibition at 10 µM (hERG): 24%
O=C(c1nn(-c2ccccc2Cl)c(-c2ccc(Cl)cc2)c1Cc1nn[nH]n1)N1CCC(Oc2ccc(Cl)cc2)CC1	30	–	2.6	47	204 (≈ 124 µg/mL)	77	inhibition at 10 µM (CYP2C9): 38%
O=C(c1nn(-c2ccccc2Cl)c(-c2ccc(Cl)cc2)c1Cc1nn[nH]n1)N1CCC(Oc2ccc(OC(F)(F)F)cc2)CC1	26	–	3	64	115 (≈ 75.7 µg/mL)	14	inhibition at 10 µM (CYP2C9): 48%
O=C(c1nn(-c2ccccc2Cl)c(-c2ccc(Cl)cc2)c1Cc1nn[nH]n1)N1CCC(Oc2cc(F)cc(F)c2)CC1	23	–	2.6	69	317 (≈ 194 µg/mL)	16	inhibition at 10 µM (CYP2C9): 32%
C[C@@H](NC(=O)c1nn(-c2ccccc2Cl)c(-c2ccc(Cl)cc2)c1Cc1nn[nH]n1)c1ccc(OC(F)(F)F)cc1	4.8	11.8	2.9	21	–	–	Efficacy [15]: 11%; concentration at 6 h [2]: 12 µM; concentration at 6 h [3]: 35 µM; concentration at 6 h [6]: 0.16 µM; Kp at 6 h [16]: 5; concentration at 6 h [8]: 4 µM; IC50 (Cannabinoid receptor 1 [9]): 9.6 nM; Drug uptake [11]: 1.3%; IC50 (Cannabinoid receptor 2): > 10000 nM
O=C(O)Cc1c(C(=O)N2CCC(c3cccc(F)c3)CC2)nn(-c2ccccc2Cl)c1-c1ccc(Cl)cc1	2.6	–	2.7	32	–	–	IC50 (Cannabinoid receptor 1 [9]): 8.1 nM; IC50 (Cannabinoid receptor 2): > 10000 nM
NC(=O)Cc1c(C(=O)N2CCC(O)(c3ccc(F)cn3)CC2)nn(-c2ccccc2Cl)c1-c1ccc(Cl)cc1	–	–	–	1.8	–	18	inhibition at 10 µM (hERG): 38%
O=C(c1nn(-c2ccccc2Cl)c(-c2ccc(Cl)cc2)c1Cc1nn[nH]n1)N1CCC(Oc2cccc(Cl)c2)CC1	24	–	2.7	95	201 (≈ 122 µg/mL)	15	inhibition at 10 µM (CYP2C9): 35%
O=C(c1nn(-c2ccccc2Cl)c(-c2ccc(Cl)cc2)c1Cc1nn[nH]n1)N1CCC(c2ccccc2F)CC1	23	–	2.5	130	474 (≈ 273 µg/mL)	33	–
C[C@@H](NC(=O)c1nn(-c2ccccc2Cl)c(-c2ccc(Cl)cc2)c1Cc1nn[nH]n1)c1ccc(F)c(Cl)c1	32	2.4	2.8	63	–	–	–
N=C(N)Cc1c(C(=O)Nc2ccc(F)cc2)nn(-c2ccccc2Cl)c1-c1ccc(Cl)cc1	–	–	2.5	–	–	–	IC50 (Cannabinoid receptor 2): > 10000 nM
Cc1c(C(=O)NN2CCCCC2)nn(-c2ccc(Cl)cc2Cl)c1-c1ccc(Cl)cc1 [RIMONABANT]	–	14.5	–	–	–	–	–
O=C(c1nn(-c2ccccc2Cl)c(-c2ccc(Cl)cc2)c1Cc1nn[nH]n1)N1CCC(Oc2cccc(F)c2)CC1	33	–	2.4	130	500 (≈ 296 µg/mL)	45	inhibition at 10 µM (CYP2C9): 14%
NC(=O)Cc1c(C(=O)N2CCC(O)(c3ccc(F)cc3)CC2)nn(-c2ccccc2Cl)c1-c1ccc(Cl)cc1	1.8	–	–	0.45	–	8	inhibition at 10 µM (hERG): 93%; IC50 [17]: 800 nM; IC50 (Cannabinoid receptor 2): 7900 nM
O=C(c1nn(-c2ccccc2Cl)c(-c2ccc(Cl)cc2)c1Cc1nn[nH]n1)N1CCC(Oc2ccc(F)c(F)c2)CC1	35	< 2	2.5	80	421 (≈ 257 µg/mL)	45	inhibition at 10 µM (CYP2C9): 0%
O=C(c1nn(-c2ccccc2Cl)c(-c2ccc(Cl)cc2)c1Cc1nn[nH]n1)N1CCC(Oc2ccc(C(F)(F)F)cc2)CC1	23	–	2.9	120	140 (≈ 89.9 µg/mL)	12	–
O=C(O)Cc1c(C(=O)N2CCC(c3ccccc3F)CC2)nn(-c2ccccc2Cl)c1-c1ccc(Cl)cc1	2.9	6.4	2.6	51	–	–	Tmax [18]: 0.5 h; Drug uptake [1]: 4%; concentration at 6 h [2]: 38 µM; concentration at 6 h [3]: 10 µM; clearance [19]: 2.1 mL/min/kg; concentration at 6 h [6]: 0.22 µM; Cmax [20]: 47 µM; Drug uptake [7]: Bld; bioavailability [21]: 88%; efflux ratio [22]: 1.3; concentration at 6 h [8]: 1.5 µM; IC50 (Cannabinoid receptor 1 [9]): 4.8 nM; Drug uptake [23]: ~ 1%; Drug uptake [11]: 0.6%; half-life [24]: 3.1 h; Vd [25]: 0.6 L/kg; fraction unbound [26]: < 0.01; IC50 (Cannabinoid receptor 2): > 10000 nM; half-life [27]: 2.2 h
O=C(O)Cc1c(C(=O)N2CCC(Oc3ccc(F)c(F)c3)CC2)nn(-c2ccccc2Cl)c1-c1ccc(Cl)cc1	12	< 2	2.9	–	500 (≈ 293 µg/mL)	–	–
C[C@@H](NC(=O)c1nn(-c2ccccc2Cl)c(-c2ccc(Cl)cc2)c1Cc1nnn[nH]1)c1cccc(F)c1	64	5.2	2.1	86	–	–	–
